In patent US20100062465A1, “Detection of Histone Deacetylase Inhibition” (priority 2006, published 2010):

System: HDAC
Assay: Fluor de Lys fluorometric assay of HDAC activity in PC3 cells
Format: cell-based, human
Settings: 24 h
Method: Briefly 20×10^3 cells/well were seeded in 96 well plates and incubated for 24 h with (a) 1 mM BLT (b) FSAHA at 2, 5, 10 μM (c) SAHA at 2, 5, 10 μM (d) FSAHA at 2, 5, 7, 8, 9, 10 μM in the presence of 1 mM BLT (e) FSAHA at 2, 5, 7, 8, 9, 10 μM in the presence of vehicle (DMSO). The Fluor de Lys substrate was then added for 1 h, medium removed, cells rinsed with PBS and incubated for 10 minutes with the Fluor-de-Lys developer, and fluorescence read at 460 nm using the Tecan microplate reader as above. Results were normalized to cell density as determined using the WST-1 assay in the same 96 well plate.

## O=C(CCCCCCC(=O)Nc1ccccc1)NO [SAHA, suberoylanilide hydroxamic acid, reference compound]
2 μM
  HDAC activity (relative to controls): 84±10%
5 μM
  HDAC activity (relative to controls): 51±3%
10 μM
  HDAC activity (relative to controls): 29±3%
